Data reported in the supplement of paper PMC11061612.

Tests used:
NB14 (Neuroblastoma) = assay: combination Emax (second highest fraction inhibited in the dose matrix, 72 h); higher = more inhibition; extreme values may be limits of the assay
How it was run: (§1)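 Bliss excess equals the observed combination effect minus the expected value EA + EB − EA·EB, where EA and EB are the effects of each agent alone. Combination Emax is the second-highest inhibition within the matrix. Inhibition was scaled from CellTiter-Glo 2.0 luminescence, with 0 set by vehicle wells and 1 by blank wells, after 72 hours of two-drug dosing of cells plated in 1536-well plates.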

[1] = test system: CAPAN-1 (Pancreatic Carcinoma); assay: as above
How it was run: as §1

[2] = test system: SW1271 (Small Cell Lung Carcinoma); assay: as above
How it was run: as §1

[3] = test system: SK-OV-3 (Ovarian Carcinoma); assay: as above
How it was run: as §1

[4] = test system: MHH-PREB-1 (B-Cell Non-Hodgkin's Lymphoma); assay: as above
How it was run: as §1

[5] = test system: KARPAS-231 (B-Cell Non-Hodgkin's Lymphoma); assay: as above
How it was run: as §1

NCI-H28 (Mesothelioma) = assay: as above
How it was run: as §1

[6] = test system: LB771-HNC (Head and Neck Carcinoma); assay: as above
How it was run: as §1

[7] = test system: NCI-H69 (Small Cell Lung Carcinoma); assay: as above
How it was run: as §1

[8] = test system: RPMI-6666 (Non-Cancerous); assay: as above
How it was run: as §1

HMV-II (Melanoma) = assay: as above
How it was run: as §1

[9] = test system: CAL-54 (Kidney Carcinoma); assay: as above
How it was run: as §1

[10] = test system: HARA (Squamous Cell Lung Carcinoma); assay: as above
How it was run: as §1

[11] = test system: LU-139 (Small Cell Lung Carcinoma); assay: as above
How it was run: as §1

[12] = test system: HCC-15 (Squamous Cell Lung Carcinoma); assay: as above
How it was run: as §1

COLO-829 (Melanoma) = assay: as above
How it was run: as §1

[13] = test system: PCI-30 (Head and Neck Carcinoma); assay: Bliss excess, mean over the matrix (fraction); higher = more synergy
How it was run: as §1

[14] = test system: RT-112 (Bladder Carcinoma); assay: as above
How it was run: as §1

[15] = test system: OVCAR-8 (Ovarian Carcinoma); assay: as above
How it was run: as §1

[16] = test system: CAL-51 (Breast Carcinoma); assay: as above
How it was run: as §1

| Compound | combination Emax (NB14 (Neuroblastoma)) | combination Emax [1] | combination Emax [2] | combination Emax [3] | combination Emax [4] | combination Emax [5] | combination Emax (NCI-H28 (Mesothelioma)) | combination Emax [6] | combination Emax [7] | combination Emax [8] | combination Emax (HMV-II (Melanoma)) | combination Emax [9] | combination Emax [10] | combination Emax [11] | combination Emax [12] | combination Emax (COLO-829 (Melanoma)) | Bliss excess [13] | Bliss excess [14] | Bliss excess [15] | Bliss excess [16] |
| --- | --- | --- | --- | --- | --- | --- | --- | --- | --- | --- | --- | --- | --- | --- | --- | --- | --- | --- | --- | --- |
| CC1(C)CCC(CN2CCN(c3ccc(C(=O)NS(=O)(=O)c4ccc(NCC5CCOCC5)c([N+](=O)[O-])c4)c(Oc4cnc5[nH]ccc5c4)c3)CC2)=C(c2ccc(Cl)cc2)C1 [Venetoclax] + C[C@@H]1COCCN1C2=NC(=NC(=C2)C3(CC3)[S@](=N)(=O)C)C4=C5C=CNC5=NC=C4 [AZD6738] (first compound max 1 µM, 7x7, partner max 10 µM) | 1 | 0.416 | 0.612 | 0.573 | 0.795 | 1 | 0.472 | 0.474 | 0.618 | 0.971 | 0.464 | 0.768 | 0.804 | 0.636 | 0.191 | 0.349 | -0.0076 | 0.0228 | -0.0444 | 0.005 |
| COc1cccc(OCCCN)c1-c1cc(Nc2cnc(C#N)cn2)n[nH]1 [Prexasertib] + O=C(c1cc(Cc2n[nH]c(=O)c3ccccc23)ccc1F)N1CCN(C(=O)C2CC2)CC1 [Olaparib] (first compound max 1 µM, 7x7, partner max 10 µM) | 0.986 | 0.595 | 0.686 | 0.713 | 0.866 | 0.974 | 0.597 | 0.568 | 0.696 | 0.959 | 0.533 | 0.792 | 0.964 | 0.442 | 0.284 | 0.281 | -0.166 | -0.137 | -0.0475 | -0.0744 |
| C[C@@H]1COCCN1c1cc(C2([S@](C)(=N)=O)CC2)nc(-c2ccnc3[nH]ccc23)n1 [AZD6738] + O=C(c1cc(Cc2n[nH]c(=O)c3ccccc23)ccc1F)N1CCN(C(=O)C2CC2)CC1 [Olaparib] (first compound max 10 µM, 7x7, partner max 10 µM) | 0.94 | 0.442 | 0.666 | 0.6 | 0.679 | 0.723 | 0.408 | 0.483 | 0.585 | 0.816 | 0.374 | 0.658 | 0.778 | 0.418 | 0.258 | 0.194 | -0.052 | -0.0643 | 0.0495 | 0.0407 |
| CN(CCO)CC[C@H](CSc1ccccc1)Nc1ccc(S(=O)(=O)NC(=O)c2ccc(N3CCC([C@@H](O)c4ccccc4-c4ccc(Cl)cc4)CC3)cc2)cc1S(=O)(=O)C(F)(F)F [AZD4320] + Cn1cnc2c(F)c(Nc3ccc(Br)cc3Cl)c(C(=O)NOCCO)cc21 [Selumetinib] (first compound max 1 µM, 7x7, partner max 3 µM) | 1 | 0.802 | 0.534 | 0.258 | 0.164 | 0.977 | 0.313 | 0.255 | 0.885 | 0.992 | 0.826 | 0.311 | 0.219 | 0.928 | 1 | 0.601 | 0.0023 | 0.113 | 0.0974 | 0.0502 |
| COc1nnc2ccc(N3CCC(c4ccc(OCCN5CCN(C)C(=O)[C@H]5C)cc4)CC3)nn12 [AZD5153] + CCN(CCO)CCCOc1ccc2c(Nc3cc(CC(=O)Nc4cccc(F)c4)[nH]n3)ncnc2c1 [AZD2811] (first compound max 1 µM, 7x7, partner max 1 µM) | 0.858 | 0.353 | 0.534 | 0.376 | 0.514 | 0.514 | 0.518 | 0.519 | 0.782 | 0.634 | 0.588 | 0.778 | 0.679 | 0.903 | 0.74 | 0.3 | -0.0568 | -0.0595 | -0.0131 | -0.0038 |
| C[C@@H](c1ccc2nccn2c1)n1nnc2ncc(-c3cnn(C)c3)nc21 [Savolitinib] + Cc1c2c(nn1C)CSCc1cc(n(C)n1)CSc1cc(c3ccccc3c1)OCCCc1c(C(=O)O)n(C)c3c-2c(Cl)ccc13 [AZD5991] (first compound max 1 µM, 7x7, partner max 1 µM) | 0.293 | 0.242 | 0.166 | 0.112 | 0.0906 | 0.606 | 0.155 | 0.412 | 0.159 | 0.523 | 0.128 | 0.188 | 0.236 | 0.126 | 0.124 | 0.242 | -0.0878 | -0.0265 | -0.0327 | -0.0115 |
| COc1cccc(OCCCN)c1-c1cc(Nc2cnc(C#N)cn2)n[nH]1 [Prexasertib] + CCc1c2c(nc3ccc(O)cc13)-c1cc3c(c(=O)n1C2)COC(=O)[C@]3(O)CC [SN-38] (first compound max 1 µM, 7x7, partner max 0.3 µM) | 1 | 0.809 | 0.769 | 0.853 | 0.96 | 1 | 0.616 | 0.647 | 0.896 | 0.976 | 0.669 | 0.855 | 0.966 | 0.899 | 0.857 | 0.662 | 0.0215 | 0.104 | 0.0373 | -0.0495 |
| Cc1cc2ncnn2cc1Nc1ncc2c(n1)n(C1CCOCC1)c(=O)n2C [AZD7648] + O=C(c1cc(Cc2n[nH]c(=O)c3ccccc23)ccc1F)N1CCN(C(=O)C2CC2)CC1 [Olaparib] (first compound max 10 µM, 7x7, partner max 10 µM) | 0.508 | 0.237 | 0.24 | 0.173 | 0.232 | 0.269 | 0.131 | 0.148 | 0.337 | 0.584 | 0.252 | 0.218 | 0.314 | 0.131 | 0.129 | 0.119 | -0.0695 | -0.0152 | -0.0103 | -0.0214 |
| COc1cccc(OCCCN)c1-c1cc(Nc2cnc(C#N)cn2)n[nH]1 [Prexasertib] + CN(C)CCCOc1ccc(-c2ccc3ncc4c(c3c2)n(C2CCOCC2)c(=O)n4C)cn1 [AZD0156] (first compound max 1 µM, 7x7, partner max 1 µM) | 1 | 0.611 | 0.678 | 0.853 | 0.974 | 0.979 | 0.626 | 0.587 | 0.582 | 0.977 | 0.517 | 0.863 | 0.986 | 0.505 | 0.187 | 0.385 | -0.0637 | 0.0134 | 0.0133 | 0.0233 |
| CS(=O)(=O)CCNCc1ccc(-c2ccc3ncnc(Nc4ccc(OCc5cccc(F)c5)c(Cl)c4)c3c2)o1 [Lapatinib] + C[C@@H](Oc1cc(-c2cnn(C3CCNCC3)c2)cnc1N)c1c(Cl)ccc(F)c1Cl [Crizotinib] (first compound max 10 µM, 7x7, partner max 10 µM) | 0.979 | 0.527 | 0.529 | 0.776 | 0.96 | 0.57 | 0.622 | 0.854 | 0.845 | 0.843 | 0.912 | 0.916 | 0.95 | 0.936 | 0.945 | 0.711 | -0.0917 | 0.0155 | -0.037 | -0.0029 |
| CCN(CCO)CCCOc1ccc2c(Nc3cc(CC(=O)Nc4cccc(F)c4)[nH]n3)ncnc2c1 [AZD2811] + O=C(c1cc(Cc2n[nH]c(=O)c3ccccc23)ccc1F)N1CCN(C(=O)C2CC2)CC1 [Olaparib] (first compound max 1 µM, 7x7, partner max 10 µM) | 0.889 | 0.338 | 0.17 | 0.226 | 0.125 | 0.576 | 0.229 | 0.201 | 0.572 | 0.625 | 0.203 | 0.223 | 0.318 | 0.307 | 0.755 | 0.254 | -0.031 | 0.0427 | 0.0244 | 0.0272 |
| CC1(C)CCC(CN2CCN(c3ccc(C(=O)NS(=O)(=O)c4ccc(NCC5CCOCC5)c([N+](=O)[O-])c4)c(Oc4cnc5[nH]ccc5c4)c3)CC2)=C(c2ccc(Cl)cc2)C1 [Venetoclax] + COc1cc(Nc2ncc3c(n2)-c2ccc(Cl)cc2C(c2c(F)cccc2OC)=NC3)ccc1C(=O)O [Alisertib] (first compound max 1 µM, 7x7, partner max 10 µM) | 0.993 | 0.28 | 0.326 | 0.315 | 0.199 | 1 | 0.348 | 0.697 | 0.837 | 0.967 | 0.363 | 0.523 | 0.787 | 0.738 | 0.86 | 0.252 | -0.0352 | -0.0323 | 0.0079 | 0.0319 |
| C=CCn1c(=O)c2cnc(Nc3ccc(N4CCN(C)CC4)cc3)nc2n1-c1cccc(C(C)(C)O)n1 [AZD1775] + C1CN(CCC1(C(=O)N[C@@H](CCO)C2=CC=C(C=C2)Cl)N)C3=NC=NC4=C3C=CN4 [Capivasertib] (first compound max 3 µM, partner max 3 µM) | 0.98 | 0.674 | 0.682 | 0.581 | 0.812 | 1 | 0.56 | 0.696 | 0.83 | 0.921 | 0.592 | 0.782 | 0.929 | 0.733 | 0.878 | 0.322 | -0.0677 | -0.0348 | -0.0167 | -0.0188 |
